Experiment: Stability in formulation: creatine in oil-in-water emulsion stored at 45° C.
Type: physicochemical
Experimental: 1.5% of the microcapsules from Example 4 were stirred into an oil-in-water emulsion and stored at T=45° C.

creatine [%] (0 weeks): 100%
creatine [%] (stored at T=45° C., 5 weeks): 40%
SMILES: CN(CC(=O)O)C(=N)N [Free creatine, creatine]

Source: US20080274149A1, “Encapsulation and Controlled Release of Biologically Active Ingredients with Enzymatically Degradable Microparticulate, Hyperbranched Polymers” (priority 2005, published 2008)
